The term IC50 denotes the concentration at which inhibition is half-maximal.

Starred links: 1 amine or outer side, 2 acyl side, 3 side chain; linkers in the order of their positions; H or OH if unused. Positions of bridges follow the written chain, without caps; N, C: chain ends. Non-standard residues stand in square brackets, D forms with d. Residues, ends and D or L forms follow the SMILES beside them. *: point of attachment. hPhe(3-Cl-4-CF3) = N[C@@H](CCc1ccc(C(F)(F)F)c(Cl)c1)C(=O)O; hPhe(3-F,4-CF3) = N[C@@H](CCc1ccc(C(F)(F)F)c(F)c1)C(=O)O; Pro(trans-4-Ph) = O=C(O)[C@@H]1C[C@@H](c2ccccc2)CN1; NMePhe(3-Br) = CN[C@@H](Cc1cccc(Br)c1)C(=O)O; NMePhe(4-Me) = CN[C@@H](Cc1ccc(C)cc1)C(=O)O; NMedβ3hAla = C[C@H](CC(=O)[*:2])N(C)[*:1]; NMeGly(cBu) = CN[C@H](C(=O)O)C1CCC1; NMeCha = CN[C@@H](CC1CCCCC1)C(=O)O; NMeAhp(2) = CCCCC[C@H](NC)C(=O)O; NMeCba = CN[C@@H](CC1CCC1)C(=O)O; NMeChg = CN[C@H](C(=O)O)C1CCCCC1; NMeF = CN[C@@H](Cc1ccccc1)C(=O)O; NMeI = CC[C@H](C)[C@H](NC)C(=O)O; NMeD = CN[C@@H](CC(=O)O)C(=O)O; NMeL = CN[C@@H](CC(C)C)C(=O)O; NMeV = CN[C@H](C(=O)O)C(C)C; d(β3hA) = C[C@@H](N)CC(=O)O; NMeA = CN[C@@H](C)C(=O)O; Piperidide = C1CCN(*)CC1; Ac5c = NC1(C(=O)O)CCCC1; Aze = O=C(O)[C@@H]1CCN1; Sar = CNCC(=O)O

Assay [1] has as its target T1, Kras and SOS1 (biotin-tagged human Kras loaded with GDP, His-tagged human SOS1) (Homo sapiens, UniProt P01116, G12D).
T1 construct: made in house; host or cells: E. coli (stated for Kras only)
Put plainly: Protein-protein interaction inhibition between Kras and SOS1 (KrasGl2D-SOS PPI) using AlphaScreen. It counts as binding. The settings on record: AlphaScreen; biotin-tagged human Kras loaded with GDP, His-tagged human SOS1; read-out: KRAS G12D-SOS PPI IC50. The method, boiled down: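 Binding between SOS1 and Kras is detected as bead-proximity luminescence: illuminate Ni-conjugated donors (680 nm), collect 520-620 nm emission from streptavidin-conjugated acceptors; Kras carries biotin and GDP loaded after purification, SOS1 carries a His tag.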

For assay [2], the system named is Human pancreatic cancer cell line AsPC-1. Put plainly: Measurement of AsPC-1 cell growth inhibition (AsPC-1 CGI). It counts as cell-based. The note with it: 96 h. The method, boiled down: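 AsPC-1 cells in 15% FBS RPMI-1640 were exposed to test compound for 96 hours at 37° C, with CellTiter-Glo as endpoint.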

T1 sequence (P01116 1-188 isoform P01116-2 G12D): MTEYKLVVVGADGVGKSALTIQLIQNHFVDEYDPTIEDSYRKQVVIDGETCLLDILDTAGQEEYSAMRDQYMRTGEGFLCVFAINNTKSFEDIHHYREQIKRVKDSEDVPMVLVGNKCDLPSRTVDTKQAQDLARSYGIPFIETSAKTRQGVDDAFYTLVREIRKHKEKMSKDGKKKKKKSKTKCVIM

`CC[C@H](C)[C@@H]1NC(=O)[C@H](CC(C)C)N(C)C(=O)C[C@@H](C)N(C)C(=O)[C@H](C(C)C)N(C)C(=O)C2(CCCC2)NC(=O)[C@@H]2CCCN2C(=O)[C@H](CCc2ccc(C(F)(F)F)c(Cl)c2)NC(=O)CN(C)C(=O)[C@H](Cc2cccc(Br)c2)N(C)C(=O)CN(C)C(=O)CN(C)C1=O` [Compound 1597] (cyclo([Ac5c][NMeV][NMedβ3hAla][NMeL]I[Sar][Sar][NMePhe(3-Br)][Sar][hPhe(3-Cl-4-CF3)]P)): the IC50 is 11 nM in assay [1] and 50 to 100 nM in assay [2].
Turning to `CC[C@H](C)[C@@H]1NC(=O)[C@H](CC(C)C)N(C)C(=O)C[C@@H](C(=O)N2CCCCC2)N(C)C(=O)[C@H](C2CCCCC2)N(C)C(=O)C2(CCCC2)NC(=O)[C@@H]2CCCN2C(=O)[C@H](CCc2ccc(C(F)(F)F)c(Cl)c2)NC(=O)CN(C)C(=O)[C@H](CC2CCCCC2)N(C)C(=O)CN(C)C(=O)CNC1=O` [Compound 1315] ([NMeL]IG[Sar][NMeCha][Sar][hPhe(3-Cl-4-CF3)]P[Ac5c][NMeChg][NMeD]-Piperidide; lactam N-11), the IC50 in assay [1] is 1 nM; in assay [2], 100 to 500 nM.
With `CC[C@H](C)[C@@H]1NC(=O)[C@H](CC(C)C)N(C)C(=O)C[C@@H](C(=O)N(C)C)N(C)C(=O)[C@H]([C@@H](C)CC)N(C)C(=O)C2(CCCC2)NC(=O)[C@H](Cc2ccccc2)N(C)C(=O)[C@H](CCc2ccc(C(F)(F)F)c(Cl)c2)NC(=O)CN(C)C(=O)[C@H](Cc2ccc(C)cc2)N(C)C(=O)[C@@H]2CCN2C(=O)[C@H](C)N(C)C1=O` [Compound 958] ([NMeL]I[NMeA][Aze][NMePhe(4-Me)][Sar][hPhe(3-Cl-4-CF3)][NMeF][Ac5c][NMeI][NMeD]-NMe2; lactam N-11), the figures for the half-inhibitory concentration (IC50) in assay [1] and in assay [2] were 2.1 nM and 20 to 50 nM, respectively.
Regarding `CC[C@H](C)[C@@H]1NC(=O)[C@H](CC(C)C)N(C)C(=O)C[C@@H](C(=O)N2CCCCC2)N(C)C(=O)[C@H](C2CCCCC2)N(C)C(=O)C2(CCCC2)NC(=O)[C@@H]2C[C@@H](c3ccccc3)CN2C(=O)[C@H](CCc2ccc(C(F)(F)F)c(Cl)c2)NC(=O)CN(C)C(=O)[C@H](CC2CCCCC2)N(C)C(=O)[C@@H]2CCN2C(=O)CN(C)C1=O` [Compound 147] ([NMeL]I[Sar][Aze][NMeCha][Sar][hPhe(3-Cl-4-CF3)][Pro(trans-4-Ph)][Ac5c][NMeChg][NMeD]-Piperidide; lactam N-11), the IC50 is 6.7 nM in assay [1] and 100 to 500 nM in assay [2].
On to `CCCCC[C@H]1C(=O)N[C@@H]([C@@H](C)CC)C(=O)N(C)CC(=O)N(C)CC(=O)N(C)[C@@H](CC2CCCCC2)C(=O)N(C)CC(=O)N[C@@H](CCc2ccc(C(F)(F)F)c(Cl)c2)C(=O)N2CCC[C@H]2C(=O)NC2(CCCC2)C(=O)N(C)[C@@H](C2CCCCC2)C(=O)N(C)[C@H](C(=O)N2CCCCC2)CC(=O)N1C` [Compound 1735] ([NMeAhp(2)]I[Sar][Sar][NMeCha][Sar][hPhe(3-Cl-4-CF3)]P[Ac5c][NMeChg][NMeD]-Piperidide; lactam N-11), for which the IC50 in assay [1] is 1.1 nM; in assay [2] it was 50 to 100 nM.
For the compound `CC[C@H](C)[C@@H]1NC(=O)[C@H](C2CCC2)N(C)C(=O)C[C@@H](C)NC(=O)[C@H](C(C)C)N(C)C(=O)C2(CCCC2)NC(=O)[C@@H]2CCCN2C(=O)[C@H](CCc2ccc(C(F)(F)F)c(Cl)c2)NC(=O)CN(C)C(=O)[C@H](CC2CCCCC2)N(C)C(=O)CN(C)C(=O)CN(C)C1=O` [Compound 815] (cyclo([Ac5c][NMeV][d(β3hA)][NMeGly(cBu)]I[Sar][Sar][NMeCha][Sar][hPhe(3-Cl-4-CF3)]P)), the 50% inhibitory concentration (IC50) in assay [1] was 26 nM; in assay [2], 100 to 500 nM.
Regarding `CC[C@H](C)[C@@H]1NC(=O)[C@H](CC(C)C)N(C)C(=O)C[C@@H](C(=O)N2CCCCC2)N(C)C(=O)[C@H](C(C)C)N(C)C(=O)C2(CCCC2)NC(=O)[C@@H]2CCCN2C(=O)[C@H](CCc2ccc(C(F)(F)F)c(Cl)c2)NC(=O)CN(C)C(=O)[C@H](CC2CCC2)N(C)C(=O)CN(C)C(=O)CN(C)C1=O` [Compound 1124] ([NMeL]I[Sar][Sar][NMeCba][Sar][hPhe(3-Cl-4-CF3)]P[Ac5c][NMeV][NMeD]-Piperidide; lactam N-11), the 50% inhibitory concentration (IC50) is 7 nM in assay [1] and 100 to 500 nM in assay [2].
For `CC(C)C[C@H]1C(=O)N[C@@H](C(C)C)C(=O)N(C)CC(=O)N(C)CC(=O)N(C)[C@@H](CC2CCCCC2)C(=O)N(C)CC(=O)N[C@@H](CCc2ccc(C(F)(F)F)c(F)c2)C(=O)N2CCC[C@H]2C(=O)NC2(CCCC2)C(=O)N(C)[C@@H](CC(C)C)C(=O)N(C)[C@H](C(=O)N2CCCCC2)CC(=O)N1C` [Compound 1458] ([NMeL]V[Sar][Sar][NMeCha][Sar][hPhe(3-F,4-CF3)]P[Ac5c][NMeL][NMeD]-Piperidide; lactam N-11) the same measures were 7.2 nM and 100 to 500 nM.

The record behind these values is patent US12371454B2, “Cyclic peptide compound having Kras inhibitory action” (priority 2019, dated 2025).
